Assays:
[1] = target: T1, Organic cation/carnitine transporter 2 (Rattus norvegicus, UniProt O70594); assay: TP_TRANSPORTER: inhibition of TEA uptake (TEA: 20 uM, Methanphetamine: 2500 uM) in OCTN2-expressing HRPE cells; assay type: functional, cell-based; conditions: human
T1 sequence (O70594 whole entry): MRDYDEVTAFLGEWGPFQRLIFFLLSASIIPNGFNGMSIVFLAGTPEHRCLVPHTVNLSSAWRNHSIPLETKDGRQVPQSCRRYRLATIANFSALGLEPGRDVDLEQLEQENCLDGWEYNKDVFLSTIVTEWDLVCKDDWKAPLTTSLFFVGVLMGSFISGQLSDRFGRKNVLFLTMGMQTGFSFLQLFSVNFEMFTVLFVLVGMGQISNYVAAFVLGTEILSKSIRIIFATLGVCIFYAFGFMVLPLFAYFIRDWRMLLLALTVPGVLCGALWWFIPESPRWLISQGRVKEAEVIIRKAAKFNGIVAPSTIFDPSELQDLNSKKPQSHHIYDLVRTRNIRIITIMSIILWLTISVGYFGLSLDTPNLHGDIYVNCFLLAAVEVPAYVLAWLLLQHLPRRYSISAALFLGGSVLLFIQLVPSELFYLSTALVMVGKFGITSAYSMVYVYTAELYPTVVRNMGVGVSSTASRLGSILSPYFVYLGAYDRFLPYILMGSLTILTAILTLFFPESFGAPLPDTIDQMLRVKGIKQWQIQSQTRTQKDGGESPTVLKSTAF

[2] = target: T1, Organic cation/carnitine transporter 2; assay: TP_TRANSPORTER: inhibition of TEA uptake (TEA: 20 uM, Amphetamine: 2500 uM) in OCTN2-expressing HRPE cells; assay type: functional, cell-based; conditions: human
[3] = target: T2, Organic cation/carnitine transporter 2 (Homo sapiens, UniProt O76082); assay: (§1) TP_TRANSPORTER: uptake in OCTN2-expressing HRPE cells; assay type: functional, cell-based
T2 sequence (O76082 whole entry): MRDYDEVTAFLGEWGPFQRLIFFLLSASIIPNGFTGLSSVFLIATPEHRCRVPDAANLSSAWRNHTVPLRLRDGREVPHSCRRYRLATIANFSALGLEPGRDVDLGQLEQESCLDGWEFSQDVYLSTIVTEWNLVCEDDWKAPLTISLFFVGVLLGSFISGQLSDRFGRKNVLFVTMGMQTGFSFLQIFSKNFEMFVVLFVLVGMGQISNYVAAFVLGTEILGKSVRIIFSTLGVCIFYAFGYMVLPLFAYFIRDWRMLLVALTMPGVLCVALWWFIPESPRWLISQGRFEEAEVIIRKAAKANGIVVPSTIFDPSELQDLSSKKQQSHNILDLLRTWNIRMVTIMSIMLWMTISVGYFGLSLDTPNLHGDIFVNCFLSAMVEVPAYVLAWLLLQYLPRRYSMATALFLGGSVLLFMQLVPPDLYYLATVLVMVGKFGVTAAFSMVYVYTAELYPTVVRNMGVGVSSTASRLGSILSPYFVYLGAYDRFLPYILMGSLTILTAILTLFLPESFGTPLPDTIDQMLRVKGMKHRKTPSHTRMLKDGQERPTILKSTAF

[4] = target: T1, Organic cation/carnitine transporter 2; assay: as §1; assay type: functional, cell-based; conditions: human
[5] = target: T1, Organic cation/carnitine transporter 2; assay: TP_TRANSPORTER: inhibition of TEA uptake (TEA: 20 uM, Serotonin: 2500 uM) in OCTN2-expressing HRPE cells; assay type: functional, cell-based; conditions: human
[6] = target: T1, Organic cation/carnitine transporter 2; assay: TP_TRANSPORTER: inhibition of TEA uptake (TEA: 20 uM, THA: 2500 uM) in OCTN2-expressing HRPE cells; assay type: functional, cell-based; conditions: human
[7] = target: T1, Organic cation/carnitine transporter 2; assay: TP_TRANSPORTER: inhibition of TEA uptake (TEA: 20 uM, TMA: 2500 uM) in OCTN2-expressing HRPE cells; assay type: functional, cell-based; conditions: human
[8] = target: T3, OCTN2 (organic cation/carnitine transporter 2) (Homo sapiens, UniProt O76082); assay: in vitro; conditions: HRPE cells expressing OCTN2, probe carnitine (0.025 uM)
T3 sequence (O76082 whole entry): T2 sequence (O76082 whole entry)
Description: (§3) TP_TRANSPORTER: inhibition of Carnitine uptake (Carnitine: 0.025 uM, Choline: 2000 uM) in OCTN2-expressing HRPE cells

[9] = target: T4, OCTN2 (organic cation/carnitine transporter 2) (Rattus norvegicus, UniProt O70594); assay: in vitro; conditions: human, HRPE cells expressing OCTN2, probe carnitine (0.025 uM)
T4 sequence (O70594 whole entry): T1 sequence (O70594 whole entry)
Description: as §3

[10] = target: T4, OCTN2 (organic cation/carnitine transporter 2); assay: TP_TRANSPORTER: inhibition of Carnitine uptake (Carnitine: 0.025 uM, Acetyl-L-carnitine: 500 uM) in OCTN2-expressing HRPE cells; assay type: functional, cell-based; set-up: scale not given: the % may be the effect or the level left; conditions: human, HRPE cells expressing OCTN2, probe carnitine (0.025 uM); read-out: Activity
[11] = target: T1, Organic cation/carnitine transporter 2; assay: TP_TRANSPORTER: inhibition of TEA uptake (TEA: 20 uM, MPP+: 2500 uM) in OCTN2-expressing HRPE cells; assay type: functional, cell-based; conditions: human
[12] = target: T4, OCTN2 (organic cation/carnitine transporter 2); assay: in vitro; conditions: human, HRPE cells expressing OCTN2, probe carnitine (0.025 uM); remark: listed apart in the source
Description: (§4) TP_TRANSPORTER: inhibition of Carnitine uptake (Carnitine: 0.025 uM, TEA: 2000 uM) in OCTN2-expressing HRPE cells

[13] = target: T3, OCTN2 (organic cation/carnitine transporter 2); assay: in vitro; conditions: HRPE cells expressing OCTN2, probe carnitine (0.025 uM); remark: listed apart in the source
Description: as §4

[14] = target: T4, OCTN2 (organic cation/carnitine transporter 2); assay: TP_TRANSPORTER: inhibition of Carnitine uptake (Carnitine: 0.025 uM, Betaine: 500 uM) in OCTN2-expressing HRPE cells; assay type: functional, cell-based; set-up: scale not given: the % may be the effect or the level left; conditions: human, HRPE cells expressing OCTN2, probe carnitine (0.025 uM); read-out: Activity
[15] = target: T1, Organic cation/carnitine transporter 2; assay: TP_TRANSPORTER: inhibition of TEA uptake (TEA: 20 uM, Norepinephrine: 2500 uM) in OCTN2-expressing HRPE cells; assay type: functional, cell-based; conditions: human
[16] = target: T1, Organic cation/carnitine transporter 2; assay: TP_TRANSPORTER: inhibition of TEA uptake (TEA: 20 uM, Procainamide: 2500 uM) in OCTN2-expressing HRPE cells; assay type: functional, cell-based; conditions: human
[17] = target: T4, OCTN2 (organic cation/carnitine transporter 2); assay: in vitro; conditions: human, HRPE cells expressing OCTN2, probe carnitine (0.025 uM); remark: listed apart in the source
Description: TP_TRANSPORTER: inhibition of Carnitine uptake (Carnitine: 0.025 uM, Cimetidine: 2000 uM) in OCTN2-expressing HRPE cells

[18] = target: T1, Organic cation/carnitine transporter 2; assay: TP_TRANSPORTER: inhibition of TEA uptake (TEA: 20 uM, Guanidine: 2500 uM) in OCTN2-expressing HRPE cells; assay type: functional, cell-based; conditions: human
[19] = target: T1, Organic cation/carnitine transporter 2; assay: TP_TRANSPORTER: inhibition of TEA uptake (TEA: 20 uM, MPTP: 2500 uM) in OCTN2-expressing HRPE cells; assay type: functional, cell-based; conditions: human
[20] = target: T4, OCTN2 (organic cation/carnitine transporter 2); assay: (§2) TP_TRANSPORTER: inhibition of Carnitine uptake (Carnitine: 0.025 uM, MPTP: 2000 uM) in OCTN2-expressing HRPE cells; assay type: functional, cell-based; set-up: scale not given: the % may be the effect or the level left; conditions: human, HRPE cells expressing OCTN2, probe carnitine (0.025 uM); read-out: Activity
[21] = target: T3, OCTN2 (organic cation/carnitine transporter 2); assay: as §2; assay type: functional, cell-based; set-up: scale not given: the % may be the effect or the level left; conditions: HRPE cells expressing OCTN2, probe carnitine (0.025 uM), read-out: Activity
[22] = target: T3, OCTN2 (organic cation/carnitine transporter 2); assay: TP_TRANSPORTER: inhibition of Carnitine uptake (Carnitine: 0.025 uM, Desipramine: 500 uM) in OCTN2-expressing HRPE cells; assay type: functional, cell-based; set-up: scale not given: the % may be the effect or the level left; conditions: HRPE cells expressing OCTN2, probe carnitine (0.025 uM), read-out: Activity
[23] = target: T1, Organic cation/carnitine transporter 2; assay: TP_TRANSPORTER: inhibition of TEA uptake (TEA: 20 uM, Desipramine: 2500 uM) in OCTN2-expressing HRPE cells; assay type: functional, cell-based; conditions: human
[24] = substrate: CC[N+](CC)(CC)CC; assay: cells, lysate or membranes named
[25] = substrate: C[N+](C)(C)CC(O)CC(=O)[O-]; assay: as §1; assay type: functional, cell-based

In the case of CN[C@@H](C)Cc1ccccc1 [METHAMPHETAMINE], the Inhibition [1] is reported as “inhibitor [20-30 % inhibition]”.

CC(N)Cc1ccccc1 (stereo unspecified) [AMPHETAMINE] was tested, and the Inhibition [2] was “inhibitor [20-30 % inhibition]”.

In the case of CCC(=O)OC(CC(=O)[O-])C[N+](C)(C)C (stereo unspecified) [Propionyl-Carnitine], the Activity [3] is reported as “substrate [+]” and the Activity [4] is reported as “substrate [+]”.

For NCCc1c[nH]c2ccc(O)cc12 [SEROTONIN], the Activity [5] was “is not an inhibitor [-]”.

In the case of CCCCCC[N+](CCCCCC)(CCCCCC)CCCCCC [TETRAHEXYLAMMONIUM], the Inhibition [6] is reported as “inhibitor [90-95 % inhibition]”.

With C[N+](C)(C)C.[Cl-] [TETRAMETHYLAMMONIUM] the Inhibition [7] was “inhibitor [20-30 % inhibition]”.

Molecule C[N+](C)(C)CCO [CHOLINE] has an activity at 2000 µM [8] of 82% and an activity at 2000 µM [9] of 24%.

In the case of CC(=O)O[C@H](CC(=O)[O-])C[N+](C)(C)C [ACETYLCARNITINE], the Activity [4] is reported as “substrate [+]” and the activity at 500 µM [10] is reported as 1%.

C[n+]1ccc(-c2ccccc2)cc1 was tested, and the Inhibition [11] was “inhibitor [50-75 % inhibition]”.

Work on CC[N+](CC)(CC)CC [TETRYLAMMONIUM] yielded an activity at 2000 µM [12] of 4% and an activity at 2000 µM [13] of 40%.

For C[N+](C)(C)CC(=O)O [BETAINE], the activity at 500 µM [14] was 51%.

With NC[C@H](O)c1ccc(O)c(O)c1 [NOREPINEPHRINE] the Activity [15] was “is not an inhibitor [-]”.

In the case of CCN(CC)CCNC(=O)c1ccc(N)cc1 [PROCAINAMIDE], the Inhibition [16] is reported as “inhibitor [50-75 % inhibition]”.

CN/C(=N/CCSCc1nc[nH]c1C)NC#N [CIMETIDINE] showed an activity at 2000 µM [17] of 29%.

With N=C(N)N [GUANIDINE] the Activity [18] was “is not an inhibitor [-]”.

CN1CC=C(c2ccccc2)CC1 was tested, and the Inhibition [19] was “inhibitor [50-75 % inhibition]”, the activity at 2000 µM [20] was 4% and the activity at 2000 µM [21] was 47%.

For CNCCCN1c2ccccc2CCc2ccccc21 [DESIPRAMINE], the activity at 500 µM [22] was 0% and the Inhibition [23] was “inhibitor [90-95 % inhibition]”.

B1: Organic cation/carnitine transporter 2 (Rattus norvegicus) (protein)
chain: T1 sequence (O70594 whole entry)
B1 was tested, and the Km [24] was 63 µM and the Km [25] was 14.8 µM.

Reference: ChEMBL document CHEMBL2074461, “Functional characteristics and tissue distribution pattern of organic cation transporter 2 (OCTN2), an organic cation/carnitine transporter” (J Pharmacol Exp Ther, 1999)
